Results on 21 compounds are retold here after US12516038B2, “Inhibitors of antigen presentation by HLA-DR” (Janssen Pharmaceutica NV, priority 2020, dated 2026).

The term IC50 denotes the concentration needed to halve the response being measured. Lower therefore signals greater potency in that assay.

In experiment [1] the test system is HLA-DR4 restricted mouse T cell hybridoma line (DR4.CII.36.8) with HLA-DRB1*04:01-expressing Boleth cells. Kind of experiment: HLA-DR4-restricted peptide-specific T cell-based assay (hybridoma assay). The settings on record: Mus musculus, T-cell, 6 h, inhibition of IL-2 production, CII259-273 peptide presented by Boleth cells. A digest of the protocol:
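Boleth cells (HLA-DRB1*04:01 B cell line) pre-incubated with compound 1 h at 37° C. in DMEM/1% FCS, then DR4.CII.36.8 mouse T cell hybridoma (CII259-273-specific) added for 6 h with CII259-273 peptide. Supernatant mouse IL-2 by AlphaLISA; IC50 by 4-PL fit of 8-point duplicate titrations.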

Experiment [2] has as its system human peripheral blood CD4+ helper T cells. As to the kind of experiment: Pan-CD4+ T cell activation (off-target assay). In kind it is cell-based. As to conditions: Homo sapiens, T-cell, 24 h, anti-CD3/anti-CD28 stimulation, IL-2 production by ELISA. A digest of the protocol: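 Human peripheral blood CD4+ T cells, with no APCs present, were stimulated with plate-bound anti-CD3 (1 μg/mL coating) plus soluble anti-CD28 (1 μg/mL) in the presence of compound or vehicle for 24 h. IL-2 in the supernatant was quantified by ELISA.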
(In general: An ELISA detects its analyte on a solid surface through an enzyme-linked reagent.)

Another experiment has as its target HLA-DRB1*0401 (Homo sapiens (Human), UniProt P01903+P01911, A100K/A169T/DEL228-266/F76Y/I96L/K127E/L162R/M171V/N62H/P40V/Q125Y/R42H/S133A/S149N/S66Y/V115G/V209L/W38E). Kind of experiment: HLA-DR4 HTRF assay. In kind it is binding. As to conditions: inhibition of loading of Alexa Fluor 647-labeled Cit-CII peptide onto HLA-DR4 (CLIP cleaved). A digest of the protocol:
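HLA-DRB1*04:01 construct (α/β fused to human Fc, CLIP pre-cleaved by HRV3C overnight at 4° C) at 3 nM was preincubated 45 min with compound and 1 nM anti-Fc-Tb donor, then 40 nM Alexa647-Cit-CII1236-1249 peptide added. After 90 min at 37° C, the 665/620 nm HTRF ratio gave % inhibition; IC50 by nonlinear regression.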

As for `Cc1c(O[C@@H](c2ccncc2)c2ccc(C(N)=O)cc2OCC(C)C)ccc2c1OCCC2=O` (single isomer, unassigned) [Example 85b, (*S)-3-isobutoxy-4-(((8-methyl-4-oxochroman-7-yl)oxy)(pyridin-4-yl)methyl)benzamide], the IC50 in experiment [1] came out at 3900 nM; in experiment [2] it was 470 nM; on HLA-DRB1*0401 it was 1100 nM.

For the compound `Cc1c(O[C@H](c2ccncc2)c2ccc(C(N)=O)cc2OCc2ccccc2)ccc2c1OCCC2=O` (single isomer, unassigned) [Example 86a, (*R)-3-(benzyloxy)-4-(((8-methyl-4-oxochroman-7-yl)oxy)(pyridin-4-yl)methyl)benzamide], the 50% inhibitory concentration (IC50) in experiment [1] was 72 nM; in experiment [2], 2500 nM; at HLA-DRB1*0401, 740 nM.

As to `Cc1c(O[C@@H](c2ccncc2)c2ccc(C(N)=O)cc2OCc2ccccc2)ccc2c1OCCC2=O` (single isomer, unassigned) [Example 86b, (*S)-3-(benzyloxy)-4-(((8-methyl-4-oxochroman-7-yl)oxy)(pyridin-4-yl)methyl)benzamide], the IC50 was found to be 1700 nM in experiment [1], 1400 nM in experiment [2] and 1000 nM against HLA-DRB1*0401.

For `Cc1c(O[C@H](c2ccc(C(N)=O)cc2)c2ccnc(CCC(=O)O)c2)ccc2c1OCCC2=O` (single isomer, unassigned) [Example 87a], the IC50 in experiment [1] was 830 nM; in experiment [2] it was > 15000 nM; against HLA-DRB1*0401, 580 nM.

With `Cc1cc2c(c(C)c1O[C@@H](c1ccncc1)c1ccc(C#N)cc1)OCCC2=O` (single isomer, unassigned) [Example 88a, (*R)-4-(((6,8-dimethyl-4-oxochroman-7-yl)oxy)(pyridin-4-yl)methyl)benzonitrile], the IC50 in experiment [1] was 2200 nM; in experiment [2], > 15000 nM; against HLA-DRB1*0401 it was 400 nM.

For `Cc1cc2c(c(C)c1O[C@H](c1ccncc1)c1ccc(C#N)cc1)OCCC2=O` (single isomer, unassigned) [Example 88b, (*S)-4-(((6,8-dimethyl-4-oxochroman-7-yl)oxy)(pyridin-4-yl)methyl)benzonitrile], the figures for the IC50 (in experiment [1]; in experiment [2]; on HLA-DRB1*0401) were 5900 nM, 9900 nM and 360 nM, respectively.

For the compound `Cc1cc2c(c(C)c1O[C@@H](c1ccncc1)c1ccc(C(N)=O)cc1)OCCC2=O` (single isomer, unassigned) [Example 89a, (*R)-4-(((6,8-dimethyl-4-oxochroman-7-yl)oxy)(pyridin-4-yl)methyl)benzamide], the 50% inhibitory concentration (IC50) amounted to 1800 nM in experiment [1], 4700 nM in experiment [2] and 470 nM at HLA-DRB1*0401.

Take `Cc1cc2c(c(C)c1O[C@H](c1ccncc1)c1ccc(C(N)=O)cc1)OCCC2=O` (single isomer, unassigned) [Example 89b, (*S)-4-(((6,8-dimethyl-4-oxochroman-7-yl)oxy)(pyridin-4-yl)methyl)benzamide]: the figures for the IC50 (in experiment [1]; in experiment [2]; on HLA-DRB1*0401) were 1200 nM, 4700 nM and 470 nM, respectively.

`Cc1c(O[C@H](c2ccc(C(N)=O)cc2)c2cccc(C#N)c2)c(F)cc2c1OCCC2=O` (single isomer, unassigned) [Example 92a, (*R)-4-((3-cyanophenyl)((6-fluoro-8-methyl-4-oxochroman-7-yl)oxy)methyl)benzamide]: the figures for the IC50 (in experiment [1]; in experiment [2]; against HLA-DRB1*0401) were 310 nM, 9900 nM and 300 nM, respectively.

In the case of `Cc1cc([C@H](Oc2c(F)cc3c(c2C)OCCC3=O)c2ccc(C(N)=O)cc2)cc(C)n1` (single isomer, unassigned) [Example 94a, (*R)-4-((2,6-dimethylpyridin-4-yl)((6-fluoro-8-methyl-4-oxochroman-7-yl)oxy)methyl)benzamide], the half-inhibitory concentration (IC50) in experiment [1] is 47 nM; in experiment [2], 9900 nM; at HLA-DRB1*0401, 220 nM.

In the case of `Cc1cc([C@@H](Oc2c(F)cc3c(c2C)OCCC3=O)c2ccc(C(N)=O)cc2)cc(C)n1` (single isomer, unassigned) [Example 94b, (*S)-4-((2,6-dimethylpyridin-4-yl)((6-fluoro-8-methyl-4-oxochroman-7-yl)oxy)methyl)benzamide], the IC50 in experiment [1] was 890 nM; in experiment [2] it was 9900 nM; against HLA-DRB1*0401, 230 nM.

In the case of `CCc1cc(O[C@@H](c2ccncc2)c2ccc(C(N)=O)cc2)cc2c1C(=O)CCO2` (single isomer, unassigned) [Example 99a, (*R)-4-(((5-ethyl-4-oxochroman-7-yl)oxy)(pyridin-4-yl)methyl)benzamide], the results for the IC50 (in experiment [1]; in experiment [2]; against HLA-DRB1*0401) were 590 nM, 3100 nM and 42000 nM, respectively.

`NC(=O)c1ccc([C@@H](Oc2ccc3c(c2Br)OCCC3=O)c2ccncc2)cc1` (single isomer, unassigned) [Example 102a, (*R)-4-(((8-bromo-4-oxochroman-7-yl)oxy)(pyridin-4-yl)methyl)benzamide]: the IC50 came out at 99 nM in experiment [1], 15000 nM in experiment [2] and 78000 nM on HLA-DRB1*0401.

For `NC(=O)c1ccc([C@H](Oc2ccc3c(c2Br)OCCC3=O)c2ccncc2)cc1` (single isomer, unassigned) [Example 102b, (*S)-4-(((8-bromo-4-oxochroman-7-yl)oxy)(pyridin-4-yl)methyl)benzamide], the IC50 was 91 nM in experiment [1], > 15000 nM in experiment [2] and > 89000 nM at HLA-DRB1*0401.

For `Cc1cc([C@@H](Oc2ccc3c(c2C)OCCC3=O)c2ccc(C(N)=O)cc2)cc(C)n1` (single isomer, unassigned) [Example 111b, (*S)-4-((2,6-dimethylpyridin-4-yl)((8-methyl-4-oxochroman-7-yl)oxy)methyl)benzamide], the values for the IC50 (in experiment [1]; in experiment [2]; at HLA-DRB1*0401) were 21 nM, 4800 nM and 560 nM, respectively.

For `O=C1CCOc2cc(O[C@H](c3ccccc3)c3ccncc3)ccc21` (single isomer, unassigned) [Example 114a, (*R)-7-(phenyl(pyridin-4-yl)methoxy)chroman-4-one], the IC50 was 5500 nM in experiment [1], > 15000 nM in experiment [2] and 1400 nM against HLA-DRB1*0401.

As to `O=C1CCOc2cc(O[C@@H](c3ccccc3)c3ccncc3)ccc21` (single isomer, unassigned) [Example 114b, (*S)-7-(phenyl(pyridin-4-yl)methoxy)chroman-4-one], the IC50 was 3000 nM in experiment [1], 4700 nM in experiment [2] and 1300 nM against HLA-DRB1*0401.

In the case of `CC[C@@H]1CC(=O)c2ccc(OCc3ccnc(C)c3)cc2O1` (single isomer, unassigned) [Example 118a, (*R)-2-ethyl-7-((2-methylpyridin-4-yl)methoxy)chroman-4-one], the figures for the 50% inhibitory concentration (IC50) (in experiment [1]; in experiment [2]; at HLA-DRB1*0401) were 7500 nM, > 15000 nM and 960 nM, respectively.

Turning to `CC[C@H]1CC(=O)c2ccc(OCc3ccnc(C)c3)cc2O1` (single isomer, unassigned) [Example 118b, (*S)-2-ethyl-7-((2-methylpyridin-4-yl)methoxy)chroman-4-one], the IC50 in experiment [1] was 12000 nM; in experiment [2] it was > 15000 nM; on HLA-DRB1*0401 it was 990 nM.

Take `Cc1c(O[C@H]2CCc3cc(C(N)=O)ccc32)ccc2c1OCCC2=O` (single isomer, unassigned) [Example 121b, (*S)-1-((8-methyl-4-oxochroman-7-yl)oxy)-2,3-dihydro-1H-indene-5-carboxamide]: the IC50 in experiment [1] is 14000 nM; in experiment [2], > 15000 nM; against HLA-DRB1*0401 it was 830 nM.

Turning to `NC(=O)c1ccc([C@@H](Oc2ccc3c(c2)OCC(c2ccccc2)C3=O)c2ccncc2)cc1` (stereo in doubt) [Example 47, 4-((1*R)-((4-Oxo-3-phenylchroman-7-yl)oxy)(pyridin-4-yl)methyl)benzamide], the IC50 in experiment [1] is 600 nM; in experiment [2], 9900 nM; on HLA-DRB1*0401 it was 6500 nM.
